The target in data set [1] is T1, thioredoxin reductase 1 (TXNRD1) (Rattus norvegicus, UniProt O89049).
T1 construct: recombinant rat TXNRD1, wild-type
T1 sequence (O89049 1-499): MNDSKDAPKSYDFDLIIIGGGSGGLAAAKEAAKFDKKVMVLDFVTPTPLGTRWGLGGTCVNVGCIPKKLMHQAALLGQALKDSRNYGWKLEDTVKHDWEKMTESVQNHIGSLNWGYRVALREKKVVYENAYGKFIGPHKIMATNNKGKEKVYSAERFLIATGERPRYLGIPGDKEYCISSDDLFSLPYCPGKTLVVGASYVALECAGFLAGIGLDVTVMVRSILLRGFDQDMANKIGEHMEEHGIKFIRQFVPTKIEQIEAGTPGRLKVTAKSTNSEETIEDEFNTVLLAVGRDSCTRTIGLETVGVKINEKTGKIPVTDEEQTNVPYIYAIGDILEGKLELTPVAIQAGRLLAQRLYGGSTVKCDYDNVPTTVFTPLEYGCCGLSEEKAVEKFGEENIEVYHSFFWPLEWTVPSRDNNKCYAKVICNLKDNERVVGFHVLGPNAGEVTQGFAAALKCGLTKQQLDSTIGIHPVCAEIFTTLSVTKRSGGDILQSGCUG
Nature of the data set: DTNB reduction assay after […] h incubation; desalting shows irreversibility. The class given is biochemical.

Data set [2] addresses T1, thioredoxin reductase 1 (TXNRD1). Nature of the data set: NADPH oxidation at […] nm with […] TXNRD1. The data set is classed as biochemical.

pIC50: −log10 of the molar value.

Usually pIC50 stands for the negative decadic logarithm of the IC50, by convention in mol/L. For `COc1ccc2c(c[n+](C)c3c4cc5c(cc4ccc23)OCO5)c1OC` [Che, chelerythrine], the pIC50 in data set [1] is 4.18.

Consider `C[n+]1cc2c3c(ccc2c2ccc4cc5c(cc4c21)OCO5)OCO3` [San, sanguinarine], for which the pIC50 in data set [1] was 4.33.

With `O=C1C=CC(=O)c2c(O)cccc21` [juglone, 5-Hydroxy-1,4-naphthoquinone], the “NADPH oxidation at 340 nm with 30 nM TXNRD1” value in data set [2] is on record as “juglone, a substrate of TXNRD1, exhibited strong NADPH oxidation”.

The values are drawn from publication PMC10574601, “Benzophenanthridine Alkaloid Chelerythrine Elicits Necroptosis of Gastric Cancer Cells via Selective Conjugation at the Redox Hyperreactive C-Terminal Sec^498 Residue of Cytosolic Selenoprotein Thioredoxin Reductase” (Molecules, 2023).
